Target: T1, ANKK1 (Homo sapiens, UniProt Q8NFD2)
T1 sequence (Q8NFD2 1-765): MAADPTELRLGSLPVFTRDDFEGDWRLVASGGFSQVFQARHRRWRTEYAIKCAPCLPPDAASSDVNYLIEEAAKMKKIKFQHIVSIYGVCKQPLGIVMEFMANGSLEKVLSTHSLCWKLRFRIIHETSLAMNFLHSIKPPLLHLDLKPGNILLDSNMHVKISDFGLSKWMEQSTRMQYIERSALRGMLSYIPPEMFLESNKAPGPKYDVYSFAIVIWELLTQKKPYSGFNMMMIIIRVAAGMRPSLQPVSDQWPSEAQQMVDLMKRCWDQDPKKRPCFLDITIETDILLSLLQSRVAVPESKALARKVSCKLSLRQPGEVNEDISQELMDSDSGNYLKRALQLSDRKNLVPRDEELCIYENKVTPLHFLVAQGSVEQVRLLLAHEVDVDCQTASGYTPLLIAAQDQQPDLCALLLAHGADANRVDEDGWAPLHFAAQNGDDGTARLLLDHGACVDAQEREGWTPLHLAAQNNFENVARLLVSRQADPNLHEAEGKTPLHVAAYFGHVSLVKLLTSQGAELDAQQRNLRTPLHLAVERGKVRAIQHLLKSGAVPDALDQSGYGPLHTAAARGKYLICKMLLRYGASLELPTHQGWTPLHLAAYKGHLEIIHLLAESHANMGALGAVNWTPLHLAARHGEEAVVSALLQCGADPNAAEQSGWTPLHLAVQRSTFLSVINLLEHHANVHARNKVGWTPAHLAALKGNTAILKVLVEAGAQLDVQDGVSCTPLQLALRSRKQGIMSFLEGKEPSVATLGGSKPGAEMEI
Assay: KINOMEscan competition binding
Conditions: read-out: %Inh ANKK1

SMILES | inhibition at 1 µM [%]
O=c1cc(N2CCOCC2)nc2n(Cc3cccc(Cl)c3Cl)c(C3CC3)nn12 [UNC10225469A] | 0
Cn1cc(-c2cnc(N)c3c(-c4ccc5c(c4)CCN5C(=O)Cc4ccccc4)csc23)cn1 [UNC10225012A] | 0
CS(=O)(=O)Cc1ccc(Nc2nccc(-c3c(-c4cccc(NC(=O)C5CCCCC5)c4)nn4ncccc34)n2)cc1 [UNC10225159A] | 0
COc1cccc(OC)c1C(=O)Nc1cccc(-c2nn3ccccc3c2-c2ccnc(Nc3cccc(F)c3)n2)c1 [UNC10225310A] | 93.2
Cc1ccc(NC(=O)Nc2cccc(C(F)(F)F)c2)cc1 [UNC10225187A] | 0

Target: FRK (Homo sapiens, UniProt P42685)
Assay: KINOMEscan competition binding
Conditions: read-out: %Inh FRK

Sequence of FRK (P42685 whole entry): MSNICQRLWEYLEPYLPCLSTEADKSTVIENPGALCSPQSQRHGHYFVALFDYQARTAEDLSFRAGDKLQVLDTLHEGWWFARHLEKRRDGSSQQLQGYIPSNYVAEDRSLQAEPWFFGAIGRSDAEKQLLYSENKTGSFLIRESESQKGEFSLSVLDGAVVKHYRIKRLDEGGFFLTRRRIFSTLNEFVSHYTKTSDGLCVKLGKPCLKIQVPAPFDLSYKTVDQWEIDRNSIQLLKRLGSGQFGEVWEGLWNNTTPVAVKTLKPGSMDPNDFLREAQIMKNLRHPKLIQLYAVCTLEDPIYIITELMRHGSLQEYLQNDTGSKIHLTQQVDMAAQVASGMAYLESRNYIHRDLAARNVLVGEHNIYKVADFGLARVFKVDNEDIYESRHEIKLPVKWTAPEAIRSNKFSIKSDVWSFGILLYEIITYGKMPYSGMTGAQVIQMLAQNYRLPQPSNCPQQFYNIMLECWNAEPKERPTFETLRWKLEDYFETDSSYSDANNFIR

SMILES | inhibition at 1 µM [%]
O=c1cc(N2CCOCC2)nc2n(Cc3cccc(Cl)c3Cl)c(C3CC3)nn12 [UNC10225469A] | 0
Cn1cc(-c2cnc(N)c3c(-c4ccc5c(c4)CCN5C(=O)Cc4ccccc4)csc23)cn1 [UNC10225012A] | 38
CS(=O)(=O)Cc1ccc(Nc2nccc(-c3c(-c4cccc(NC(=O)C5CCCCC5)c4)nn4ncccc34)n2)cc1 [UNC10225159A] | 4
COc1cccc(OC)c1C(=O)Nc1cccc(-c2nn3ccccc3c2-c2ccnc(Nc3cccc(F)c3)n2)c1 [UNC10225310A] | 16
Cc1ccc(NC(=O)Nc2cccc(C(F)(F)F)c2)cc1 [UNC10225187A] | 0

Target: CDK9 (Homo sapiens, UniProt P50750)
Assay: KINOMEscan competition binding
Conditions: read-out: %Inh CDK9

Sequence of CDK9 (P50750 whole entry): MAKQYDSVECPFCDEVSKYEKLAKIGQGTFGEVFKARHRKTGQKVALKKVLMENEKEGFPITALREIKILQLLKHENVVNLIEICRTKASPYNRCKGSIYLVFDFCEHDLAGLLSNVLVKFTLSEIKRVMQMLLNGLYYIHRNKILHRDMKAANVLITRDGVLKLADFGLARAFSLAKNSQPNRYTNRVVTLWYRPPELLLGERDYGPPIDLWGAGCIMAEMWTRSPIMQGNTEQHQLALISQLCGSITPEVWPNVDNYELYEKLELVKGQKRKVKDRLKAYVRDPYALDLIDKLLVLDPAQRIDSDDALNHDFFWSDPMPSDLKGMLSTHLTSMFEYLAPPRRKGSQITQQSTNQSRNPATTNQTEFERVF

SMILES | inhibition at 1 µM [%]
O=c1cc(N2CCOCC2)nc2n(Cc3cccc(Cl)c3Cl)c(C3CC3)nn12 [UNC10225469A] | 0
Cn1cc(-c2cnc(N)c3c(-c4ccc5c(c4)CCN5C(=O)Cc4ccccc4)csc23)cn1 [UNC10225012A] | 0
CS(=O)(=O)Cc1ccc(Nc2nccc(-c3c(-c4cccc(NC(=O)C5CCCCC5)c4)nn4ncccc34)n2)cc1 [UNC10225159A] | 0
COc1cccc(OC)c1C(=O)Nc1cccc(-c2nn3ccccc3c2-c2ccnc(Nc3cccc(F)c3)n2)c1 [UNC10225310A] | 0
Cc1ccc(NC(=O)Nc2cccc(C(F)(F)F)c2)cc1 [UNC10225187A] | 0

Target: T2, MAP3K2 (Homo sapiens, UniProt Q9Y2U5)
T2 sequence (Q9Y2U5 1-619): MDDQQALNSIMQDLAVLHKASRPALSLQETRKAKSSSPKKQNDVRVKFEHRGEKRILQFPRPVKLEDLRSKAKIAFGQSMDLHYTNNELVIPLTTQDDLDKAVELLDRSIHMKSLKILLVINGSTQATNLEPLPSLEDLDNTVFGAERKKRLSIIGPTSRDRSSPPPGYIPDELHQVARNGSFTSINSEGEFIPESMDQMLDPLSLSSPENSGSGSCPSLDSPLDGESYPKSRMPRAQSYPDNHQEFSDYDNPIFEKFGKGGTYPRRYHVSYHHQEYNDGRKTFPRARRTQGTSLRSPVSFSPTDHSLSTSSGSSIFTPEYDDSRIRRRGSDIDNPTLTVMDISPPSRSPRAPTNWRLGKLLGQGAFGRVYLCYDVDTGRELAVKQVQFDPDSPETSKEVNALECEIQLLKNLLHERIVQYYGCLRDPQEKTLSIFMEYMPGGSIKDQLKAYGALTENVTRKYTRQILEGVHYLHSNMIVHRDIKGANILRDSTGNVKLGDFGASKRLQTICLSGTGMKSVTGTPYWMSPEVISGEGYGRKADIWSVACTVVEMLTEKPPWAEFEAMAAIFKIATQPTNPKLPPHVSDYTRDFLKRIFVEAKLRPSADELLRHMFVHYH
Assay: KINOMEscan competition binding
Conditions: read-out: %Inh MAP3K2

SMILES | inhibition at 1 µM [%]
O=c1cc(N2CCOCC2)nc2n(Cc3cccc(Cl)c3Cl)c(C3CC3)nn12 [UNC10225469A] | 0
Cn1cc(-c2cnc(N)c3c(-c4ccc5c(c4)CCN5C(=O)Cc4ccccc4)csc23)cn1 [UNC10225012A] | 75
CS(=O)(=O)Cc1ccc(Nc2nccc(-c3c(-c4cccc(NC(=O)C5CCCCC5)c4)nn4ncccc34)n2)cc1 [UNC10225159A] | 15
COc1cccc(OC)c1C(=O)Nc1cccc(-c2nn3ccccc3c2-c2ccnc(Nc3cccc(F)c3)n2)c1 [UNC10225310A] | 7
Cc1ccc(NC(=O)Nc2cccc(C(F)(F)F)c2)cc1 [UNC10225187A] | 0

Target: T3, EPHA6 (Homo sapiens, UniProt Q9UF33)
T3 sequence (Q9UF33 23-1036): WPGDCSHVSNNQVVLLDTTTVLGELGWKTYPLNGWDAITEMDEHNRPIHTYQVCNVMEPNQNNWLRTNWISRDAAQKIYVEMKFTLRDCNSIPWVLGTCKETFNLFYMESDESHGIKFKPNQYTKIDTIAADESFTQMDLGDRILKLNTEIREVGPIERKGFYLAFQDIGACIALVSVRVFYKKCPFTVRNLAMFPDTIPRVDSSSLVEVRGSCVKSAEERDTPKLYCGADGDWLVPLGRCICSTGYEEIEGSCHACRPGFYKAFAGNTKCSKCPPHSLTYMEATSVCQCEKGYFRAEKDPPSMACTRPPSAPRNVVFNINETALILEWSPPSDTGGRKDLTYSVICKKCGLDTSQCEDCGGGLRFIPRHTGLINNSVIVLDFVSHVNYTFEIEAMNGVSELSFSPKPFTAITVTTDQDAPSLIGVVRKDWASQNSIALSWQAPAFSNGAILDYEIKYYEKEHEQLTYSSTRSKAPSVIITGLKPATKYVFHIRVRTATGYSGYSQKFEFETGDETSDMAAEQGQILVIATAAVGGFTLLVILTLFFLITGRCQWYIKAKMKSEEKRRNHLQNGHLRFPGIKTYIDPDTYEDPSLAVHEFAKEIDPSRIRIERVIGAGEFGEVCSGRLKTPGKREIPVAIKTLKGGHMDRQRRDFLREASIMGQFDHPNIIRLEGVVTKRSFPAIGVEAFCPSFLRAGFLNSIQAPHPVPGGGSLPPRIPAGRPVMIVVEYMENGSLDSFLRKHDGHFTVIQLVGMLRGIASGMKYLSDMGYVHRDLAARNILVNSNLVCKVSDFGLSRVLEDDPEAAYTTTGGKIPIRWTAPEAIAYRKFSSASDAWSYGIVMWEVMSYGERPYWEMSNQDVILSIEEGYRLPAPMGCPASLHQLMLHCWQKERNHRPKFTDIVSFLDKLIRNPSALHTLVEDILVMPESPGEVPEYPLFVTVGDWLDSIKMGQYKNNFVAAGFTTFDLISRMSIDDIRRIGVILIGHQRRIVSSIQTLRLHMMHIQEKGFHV
Assay: KINOMEscan competition binding
Conditions: read-out: %Inh EPHA6

SMILES | inhibition at 1 µM [%]
O=c1cc(N2CCOCC2)nc2n(Cc3cccc(Cl)c3Cl)c(C3CC3)nn12 [UNC10225469A] | 0
Cn1cc(-c2cnc(N)c3c(-c4ccc5c(c4)CCN5C(=O)Cc4ccccc4)csc23)cn1 [UNC10225012A] | 11
CS(=O)(=O)Cc1ccc(Nc2nccc(-c3c(-c4cccc(NC(=O)C5CCCCC5)c4)nn4ncccc34)n2)cc1 [UNC10225159A] | 2
COc1cccc(OC)c1C(=O)Nc1cccc(-c2nn3ccccc3c2-c2ccnc(Nc3cccc(F)c3)n2)c1 [UNC10225310A] | 11
Cc1ccc(NC(=O)Nc2cccc(C(F)(F)F)c2)cc1 [UNC10225187A] | 0

Target: EGFR (Homo sapiens, UniProt P00533)
Assay: KINOMEscan competition binding
Conditions: read-out: %Inh EGFR

Sequence of EGFR (P00533 25-1210): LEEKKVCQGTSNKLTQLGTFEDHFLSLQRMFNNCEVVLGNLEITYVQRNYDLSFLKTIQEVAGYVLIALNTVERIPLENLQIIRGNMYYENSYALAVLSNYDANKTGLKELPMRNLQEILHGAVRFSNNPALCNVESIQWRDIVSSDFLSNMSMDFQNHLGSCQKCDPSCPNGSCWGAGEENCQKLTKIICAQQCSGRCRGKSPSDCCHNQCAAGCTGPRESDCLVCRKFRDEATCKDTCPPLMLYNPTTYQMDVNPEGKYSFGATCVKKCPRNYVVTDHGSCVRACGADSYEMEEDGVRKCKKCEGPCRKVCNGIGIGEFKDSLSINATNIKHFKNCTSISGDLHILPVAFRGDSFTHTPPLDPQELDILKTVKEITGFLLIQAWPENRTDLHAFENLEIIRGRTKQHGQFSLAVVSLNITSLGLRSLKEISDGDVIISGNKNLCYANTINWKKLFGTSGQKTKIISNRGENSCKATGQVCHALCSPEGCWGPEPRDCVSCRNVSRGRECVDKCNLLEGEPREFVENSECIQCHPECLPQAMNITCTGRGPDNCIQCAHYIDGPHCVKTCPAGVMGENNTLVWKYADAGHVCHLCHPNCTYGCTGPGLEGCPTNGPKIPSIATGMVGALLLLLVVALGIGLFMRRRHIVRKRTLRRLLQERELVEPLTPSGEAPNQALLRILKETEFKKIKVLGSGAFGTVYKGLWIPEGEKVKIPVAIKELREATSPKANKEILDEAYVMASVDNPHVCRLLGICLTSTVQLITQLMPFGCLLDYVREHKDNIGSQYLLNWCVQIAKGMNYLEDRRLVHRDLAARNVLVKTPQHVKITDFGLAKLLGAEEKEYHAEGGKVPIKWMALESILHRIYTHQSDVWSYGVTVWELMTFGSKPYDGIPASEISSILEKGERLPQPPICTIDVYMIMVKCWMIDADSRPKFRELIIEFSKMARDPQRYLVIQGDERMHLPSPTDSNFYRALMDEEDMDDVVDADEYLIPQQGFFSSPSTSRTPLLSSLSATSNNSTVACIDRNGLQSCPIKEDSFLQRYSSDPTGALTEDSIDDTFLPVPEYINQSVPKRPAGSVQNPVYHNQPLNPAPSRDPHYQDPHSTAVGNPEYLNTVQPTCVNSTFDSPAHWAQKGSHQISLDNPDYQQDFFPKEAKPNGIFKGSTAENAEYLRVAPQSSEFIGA

SMILES | inhibition at 1 µM [%]
O=c1cc(N2CCOCC2)nc2n(Cc3cccc(Cl)c3Cl)c(C3CC3)nn12 [UNC10225469A] | 0
Cn1cc(-c2cnc(N)c3c(-c4ccc5c(c4)CCN5C(=O)Cc4ccccc4)csc23)cn1 [UNC10225012A] | 3
CS(=O)(=O)Cc1ccc(Nc2nccc(-c3c(-c4cccc(NC(=O)C5CCCCC5)c4)nn4ncccc34)n2)cc1 [UNC10225159A] | 68
COc1cccc(OC)c1C(=O)Nc1cccc(-c2nn3ccccc3c2-c2ccnc(Nc3cccc(F)c3)n2)c1 [UNC10225310A] | 91.7
Cc1ccc(NC(=O)Nc2cccc(C(F)(F)F)c2)cc1 [UNC10225187A] | 0

— PMC5540273, “Progress towards a public chemogenomic set for protein kinases and a call for contributions” (PLoS ONE, 2017)
